From ChEMBL document CHEMBL4382204 (Eur J Med Chem, 2018)

What was measured:
KU812 cell line = assay: Antiproliferative activity in human KU812 cells after 72 hrs by CCK8 assay; type: functional; conditions: KU812, 72 h
[1] = Antiproliferative activity in mouse BAF3 cells after 72 hrs by CCK8 assay; type: cell-based
MEG-01 = assay: Antiproliferative activity in human MEG01 cells after 72 hrs by CCK8 assay; type: functional; conditions: MEG-01, 72 h
[2] = Antiproliferative activity in CHO cells after 72 hrs by CCK8 assay; type: cell-based, Cricetulus griseus; conditions: chinese hamster
K562 = assay: Antiproliferative activity in human K562 cells after 72 hrs by CCK8 assay; type: functional; conditions: K562, 72 h
HL-60 = assay: Antiproliferative activity in human HL60 cells after 72 hrs by CCK8 assay; type: functional; conditions: HL-60, 72 h
MEC1 = assay: Antiproliferative activity in human MEC1 cells after 72 hrs by CCK8 assay; type: functional; conditions: MEC1, 72 h
U-937 = assay: Antiproliferative activity in human U937 cells after 72 hrs by CCK8 assay; type: functional; conditions: U-937, 72 h
OCI-AML2 = assay: Antiproliferative activity in human OCI-AML2 cells after 72 hrs by CCK8 assay; type: functional; conditions: OCI-AML2, 72 h
BaF3 = assay: Antitumor activity against mouse BAF3 cells expressing BCR/ABL T315I mutant allografted in nu/nu mouse assessed as tumor weight at 100 mg/kg, po administered via gavage measured for 14 days (reference value: 2.78 g); type: functional
[3] = target: Bcr/Abl fusion protein (Homo sapiens) (UniProt P00519+P11274); conditions: BaF3
Chain of Bcr/Abl fusion protein (Homo sapiens) (P00519 whole entry, looked up, the tested form may be a part): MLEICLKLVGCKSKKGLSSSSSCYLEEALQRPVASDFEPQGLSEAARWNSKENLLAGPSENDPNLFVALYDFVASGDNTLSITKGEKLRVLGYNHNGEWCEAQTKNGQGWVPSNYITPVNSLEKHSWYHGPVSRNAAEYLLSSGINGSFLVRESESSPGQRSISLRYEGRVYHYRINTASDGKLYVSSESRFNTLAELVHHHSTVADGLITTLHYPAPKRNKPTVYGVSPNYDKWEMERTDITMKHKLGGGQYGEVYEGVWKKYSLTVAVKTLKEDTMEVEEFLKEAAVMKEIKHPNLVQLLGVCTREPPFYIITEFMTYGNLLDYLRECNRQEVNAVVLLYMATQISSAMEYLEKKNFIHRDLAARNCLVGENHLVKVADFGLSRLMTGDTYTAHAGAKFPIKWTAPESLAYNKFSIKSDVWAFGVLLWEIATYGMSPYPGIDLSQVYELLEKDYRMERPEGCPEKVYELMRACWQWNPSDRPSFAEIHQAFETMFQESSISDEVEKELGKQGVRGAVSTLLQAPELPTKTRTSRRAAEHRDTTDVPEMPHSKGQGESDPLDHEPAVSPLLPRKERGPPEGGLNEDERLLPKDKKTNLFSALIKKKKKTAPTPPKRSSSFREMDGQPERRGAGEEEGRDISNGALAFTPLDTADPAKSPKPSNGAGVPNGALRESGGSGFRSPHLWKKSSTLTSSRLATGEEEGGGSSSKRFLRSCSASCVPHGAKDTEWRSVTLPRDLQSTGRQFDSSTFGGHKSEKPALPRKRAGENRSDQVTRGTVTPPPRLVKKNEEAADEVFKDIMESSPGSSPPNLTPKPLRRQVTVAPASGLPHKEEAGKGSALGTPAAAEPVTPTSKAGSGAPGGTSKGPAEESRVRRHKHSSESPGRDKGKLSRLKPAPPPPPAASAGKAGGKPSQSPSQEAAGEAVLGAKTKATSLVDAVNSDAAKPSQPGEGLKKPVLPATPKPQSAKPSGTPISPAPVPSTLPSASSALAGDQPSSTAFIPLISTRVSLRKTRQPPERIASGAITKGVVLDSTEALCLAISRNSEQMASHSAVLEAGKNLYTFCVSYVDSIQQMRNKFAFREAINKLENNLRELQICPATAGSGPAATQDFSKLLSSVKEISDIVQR
Chain of Bcr/Abl fusion protein (Homo sapiens) (P11274 whole entry, looked up, the tested form may be a part): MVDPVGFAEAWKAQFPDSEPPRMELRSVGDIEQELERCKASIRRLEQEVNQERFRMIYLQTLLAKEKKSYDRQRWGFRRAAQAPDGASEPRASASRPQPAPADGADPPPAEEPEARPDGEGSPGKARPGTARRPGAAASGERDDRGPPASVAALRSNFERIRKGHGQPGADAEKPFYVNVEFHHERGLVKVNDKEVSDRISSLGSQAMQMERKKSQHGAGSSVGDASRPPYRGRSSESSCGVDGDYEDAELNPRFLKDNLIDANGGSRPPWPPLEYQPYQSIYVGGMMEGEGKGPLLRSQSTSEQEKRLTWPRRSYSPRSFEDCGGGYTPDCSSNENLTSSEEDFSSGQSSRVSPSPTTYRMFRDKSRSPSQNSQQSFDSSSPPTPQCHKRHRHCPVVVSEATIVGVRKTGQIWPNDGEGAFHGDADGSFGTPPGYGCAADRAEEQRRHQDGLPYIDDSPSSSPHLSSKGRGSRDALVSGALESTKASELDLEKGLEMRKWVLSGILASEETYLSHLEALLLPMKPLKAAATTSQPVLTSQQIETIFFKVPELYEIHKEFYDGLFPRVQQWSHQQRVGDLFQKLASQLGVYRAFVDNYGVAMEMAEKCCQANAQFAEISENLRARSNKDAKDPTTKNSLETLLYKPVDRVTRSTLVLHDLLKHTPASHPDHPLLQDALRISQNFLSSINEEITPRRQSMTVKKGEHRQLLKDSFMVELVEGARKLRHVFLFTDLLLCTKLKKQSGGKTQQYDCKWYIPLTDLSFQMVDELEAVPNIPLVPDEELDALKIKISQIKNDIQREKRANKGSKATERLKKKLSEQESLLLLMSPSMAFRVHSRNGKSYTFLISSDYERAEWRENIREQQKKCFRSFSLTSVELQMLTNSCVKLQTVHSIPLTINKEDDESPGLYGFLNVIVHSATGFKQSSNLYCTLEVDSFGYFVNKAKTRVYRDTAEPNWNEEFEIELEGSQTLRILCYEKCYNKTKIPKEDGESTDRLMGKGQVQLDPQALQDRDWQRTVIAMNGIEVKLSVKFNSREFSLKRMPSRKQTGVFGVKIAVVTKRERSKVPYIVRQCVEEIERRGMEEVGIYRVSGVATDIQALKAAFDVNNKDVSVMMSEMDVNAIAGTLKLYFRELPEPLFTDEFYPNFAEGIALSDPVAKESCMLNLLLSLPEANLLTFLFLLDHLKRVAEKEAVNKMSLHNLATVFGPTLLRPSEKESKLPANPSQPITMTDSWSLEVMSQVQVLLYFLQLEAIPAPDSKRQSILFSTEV
Description: Inhibition of wild type BCR/ABL (unknown origin) transfected in mouse BAF3 cells assessed as growth inhibition after 72 hrs by CCK8 assay

[4] = tested on: Bcr/Abl fusion protein (Homo sapiens), P00519+P11274 [T315I]; conditions: BaF3
[5] = Selectivity ratio of GI50 for mouse BAF3 cells to GI50 for wild type BCR/ABL (unknown origin) transfected in mouse BAF3 cells
[6] = Selectivity ratio of GI50 for mouse BAF3 cells to GI50 for BCR/ABL T315I mutant (unknown origin) transfected in mouse BAF3 cells

SMILES	GI50 at 72 h [1] [nM]	GI50 [3] [nM]	GI50 [4] [nM]	also measured
CNC(=O)c1ccccc1Sc1ccc2c(/C=C/c3ccccn3)n[nH]c2c1 [AXITINIB]	1640			GI50 (KU812 cell line): 500 nM; GI50 (MEG-01): 970 nM; GI50 at 72 h [2]: > 10000 nM; GI50 (K562): 940 nM; GI50 (HL-60): 6780 nM; GI50 (MEC1): 1540 nM; GI50 (U-937): 1980 nM; GI50 (OCI-AML2): 2360 nM
Cc1ccc(NC(=O)c2ccc(CN3CCN(C)CC3)cc2)cc1Nc1nccc(-c2cccnc2)n1 [IMATINIB]	> 10000			GI50 (KU812 cell line): 310 nM; GI50 (MEG-01): 280 nM; Activity (BaF3): 3.36 g; GI50 at 72 h [2]: > 10000 nM; GI50 (K562): 250 nM; GI50 (HL-60): > 10000 nM; GI50 (MEC1): > 10000 nM; GI50 (U-937): > 10000 nM; GI50 (OCI-AML2): > 10000 nM
COc1cccc(NC(=O)CCSc2ccc3c(/C=C/c4ccccn4)n[nH]c3c2)c1	3840	3220	3210	
O=C(CCSc1ccc2c(/C=C/c3ccccn3)n[nH]c2c1)NCc1cccc(C(F)(F)F)c1	8030	3390	7050	
Cc1n[nH]c2cc(SCCC(=O)Nc3ccc(CN4CCN(C)CC4)c(C(F)(F)F)c3)ccc12	3900	330	170	
CN1CCN(c2cccc(NC(=O)CCSc3ccc4c(/C=C/c5ccccn5)n[nH]c4c3)c2)CC1	> 10000	8240	8180	
CN(C)CCN(C)Cc1ccc(NC(=O)CCSc2ccc3c(/C=C/c4ccccn4)n[nH]c3c2)cc1C(F)(F)F	1850	110	110	
CC1CCN(Cc2ccc(NC(=O)CCSc3ccc4c(/C=C/c5ccccn5)n[nH]c4c3)cc2C(F)(F)F)CC1	4170	1980	1750	
CN1CCN(Cc2ccc(C(=O)NCCCSc3ccc4c(/C=C/c5ccccn5)n[nH]c4c3)cc2C(F)(F)F)CC1	4400	22	330	
O=C(CCSc1ccc2c(/C=C/c3ccccn3)n[nH]c2c1)Nc1ccc(Cl)c(C(F)(F)F)c1	> 10000	2710	2670	
CN1CCN(Cc2ccc(NC(=O)CCSc3ccc4c(-c5ccncc5)n[nH]c4c3)cc2C(F)(F)F)CC1	1060	38	18	
Cc1ccc(NC(=O)CCSc2ccc3c(/C=C/c4ccccn4)n[nH]c3c2)cc1C(F)(F)F	530	160	88	
CCN1CCN(Cc2ccc(NC(=O)CCSc3ccc4c(/C=C/c5ccccn5)n[nH]c4c3)cc2C(F)(F)F)CC1	840	4	4	RatioGI50 [5]: 200; RatioGI50 [6]: 200
O=C(CCSc1ccc2c(/C=C/c3ccccn3)n[nH]c2c1)Nc1cccc(C(F)(F)F)c1	2300	900	280	
Cc1cccc(NC(=O)CCSc2ccc3c(/C=C/c4ccccn4)n[nH]c3c2)c1	> 10000	3150	4030	
O=C(NCCCSc1ccc2c(/C=C/c3ccccn3)n[nH]c2c1)c1cccc(C(F)(F)F)c1	980	500	650	
Cc1ccc(-c2n[nH]c3cc(SCCC(=O)Nc4ccc(CN5CCN(C)CC5)c(C(F)(F)F)c4)ccc23)cn1	1180	91	49	
